Reference: the supplement of paper PMC8149375

Assays:
Settings in all cases: treatment: drug alone; 5 days
[1] = test system: A498; assay: minimum viability across doses, drug alone, relative to DMSO (fraction); higher = less growth inhibition
Experimental: (§1)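 Primary HTS: 8 RCC cell lines treated with 8 doses (up to 10 uM) of each library drug alone for 5 days; viability read by CellTiter-Glo and normalised to DMSO. GI50 was fitted with XLfit (4-parameter), AUC is the area under the dose-response curve, and minimum viability is the lowest fraction of DMSO viability across doses.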

[2] = test system: UO-31; assay: as above
Experimental: as §1

[3] = test system: ACHN; assay: as above
Experimental: as §1

[4] = test system: 786-O; assay: as above
Experimental: as §1

[5] = test system: TK-10; assay: as above
Experimental: as §1

[6] = test system: 769-P; assay: as above
Experimental: as §1

[7] = test system: SN12C; assay: as above
Experimental: as §1

[8] = test system: CAKI-1; assay: as above
Experimental: as §1

[9] = test system: A498; assay: AUC of dose-response viability curve, drug alone (arbitrary (AUC of normalised viability)); higher = less growth inhibition
Experimental: as §1

[10] = test system: UO-31; assay: as above
Experimental: as §1

[11] = test system: ACHN; assay: as above
Experimental: as §1

[12] = test system: 786-O; assay: as above
Experimental: as §1

[13] = test system: TK-10; assay: as above
Experimental: as §1

[14] = test system: 769-P; assay: as above
Experimental: as §1

[15] = test system: SN12C; assay: as above
Experimental: as §1

[16] = test system: CAKI-1; assay: as above
Experimental: as §1

[17] = test system: A498; assay: GI50, drug alone; higher = less potent
Experimental: as §1

[18] = test system: UO-31; assay: GI50, drug alone; higher = less potent
Experimental: as §1

[19] = test system: ACHN; assay: GI50, drug alone; higher = less potent
Experimental: as §1

[20] = test system: 786-O; assay: GI50, drug alone; higher = less potent
Experimental: as §1

[21] = test system: TK-10; assay: GI50, drug alone; higher = less potent
Experimental: as §1

[22] = test system: 769-P; assay: GI50, drug alone; higher = less potent
Experimental: as §1

[23] = test system: SN12C; assay: GI50, drug alone; higher = less potent
Experimental: as §1

[24] = test system: CAKI-1; assay: GI50, drug alone; higher = less potent
Experimental: as §1

| SMILES | minimum viability across doses [1] | minimum viability across doses [2] | minimum viability across doses [3] | minimum viability across doses [4] | minimum viability across doses [5] | minimum viability across doses [6] | minimum viability across doses [7] | minimum viability across doses [8] | AUC of dose-response viability curve [9] | AUC of dose-response viability curve [10] | AUC of dose-response viability curve [11] | AUC of dose-response viability curve [12] | AUC of dose-response viability curve [13] | AUC of dose-response viability curve [14] | AUC of dose-response viability curve [15] | AUC of dose-response viability curve [16] | GI50, drug alone [17] | GI50, drug alone [18] | GI50, drug alone [19] | GI50, drug alone [20] | GI50, drug alone [21] | GI50, drug alone [22] | GI50, drug alone [23] | GI50, drug alone [24] |
| --- | --- | --- | --- | --- | --- | --- | --- | --- | --- | --- | --- | --- | --- | --- | --- | --- | --- | --- | --- | --- | --- | --- | --- | --- |
| COc1cc(Nc2c(C#N)cnc3cc(OCCCN4CCN(C)CC4)c(OC)cc23)c(Cl)cc1Cl [Bosutinib (SKI-606)] | 0.233 | 0.00817 | 0.0885 | 0.0159 | 0.0431 | 0.111 | 0.126 | 0.0478 | 3.08 | 2.35 | 2.16 | 2.94 | 2.61 | 2.68 | 2.34 | 2.38 | 5050 nM | > 10000 nM | 429 nM | 2510 nM | 1210 nM | 1650 nM | 1140 nM | 849 nM |
| CC[C@H](Nc1ncnc2[nH]cnc12)c1nc2cccc(F)c2c(=O)n1-c1ccccc1 [CAL-101 (GS-1101)] | 0.979 | 0.926 | 0.64 | 0.613 | 0.701 | 0.786 | 0.777 | 0.633 | 4.09 | 3.87 | 3.17 | 3.15 | 3.12 | 3.45 | 3.2 | 3.06 | > 10000 nM | > 10000 nM | > 10000 nM | > 10000 nM | > 10000 nM | > 10000 nM | > 10000 nM | > 10000 nM |
| O=c1[nH]c2ccc(Cl)cc2c(N[C@@H]2CN3CCC2CC3)c1-c1nc2ccccc2[nH]1 [CHIR-124] | 0.0252 | 0.0103 | 0.0184 | 0.0053 | 0.168 | 0.017 | 0.0133 | 0.0814 | 2.43 | 1.4 | 1.15 | 0.832 | 1.68 | 1.61 | 2.32 | 1.73 | 498 nM | 83.2 nM | 40.3 nM | 36.5 nM | 129 nM | 129 nM | 1190 nM | 165 nM |
| C=CC(=O)Nc1cc2c(Nc3ccc(F)c(Cl)c3)ncnc2cc1OCCCN1CCOCC1 [CI-1033 (Canertinib)] | 0.141 | 0.557 | 0.158 | 0.487 | 0.156 | 0.344 | 0.104 | 0.382 | 3.62 | 3.48 | 2.09 | 2.52 | 2.11 | 2.24 | 2.52 | 2.8 | 8550 nM | > 10000 nM | 532 nM | > 10000 nM | 626 nM | 1000 nM | 5220 nM | 5530 nM |
| Cc1nc(N)sc1-c1ccnc(Nc2ccc(N3CCOCC3)cc2)n1 [CYC116] | 0.287 | 0.00864 | 0.107 | 0.00272 | 0.152 | 0.137 | 0.207 | 0.027 | 3.68 | 3.6 | 2.45 | 1.88 | 2.31 | 2.86 | 2.72 | 2.23 | 7870 nM | 8170 nM | 975 nM | 727 nM | 1890 nM | 2990 nM | 3210 nM | 693 nM |
| COc1cc2c(Oc3ccc4[nH]c(C)cc4c3F)ncnc2cc1OCCCN1CCCC1 [Cediranib (AZD2171)] | 0.17 | 0.0213 | 0.0987 | 0.129 | 0.0469 | 0.293 | 0.248 | 0.0807 | 3.15 | 2.76 | 2.5 | 2.5 | 2.62 | 2.94 | 2.55 | 2.35 | 5360 nM | 2980 nM | 969 nM | 2600 nM | 2290 nM | 5430 nM | 2870 nM | 740 nM |
| N#CCNC(=O)c1ccc(-c2ccnc(Nc3ccc(N4CCOCC4)cc3)n2)cc1 [Cyt387] | 0.868 | 0.0114 | 0.0637 | 0.00487 | 0.152 | 0.29 | 0.434 | 0.0592 | 4.74 | 3.36 | 2.82 | 2.19 | 2.6 | 3.08 | 3.06 | 2.51 | > 10000 nM | 4280 nM | 1980 nM | 941 nM | 2700 nM | 6390 nM | 8320 nM | 1420 nM |
| CNC(=O)c1cc(Oc2ccc(NC(=O)Nc3cc(C(C)(C)C)nn3-c3ccc4ncccc4c3)c(F)c2)ccn1 [DCC-2036 (Rebastinib)] | 0.0163 | 0.00743 | 0.0439 | 0.359 | 0.0459 | 0.752 | 0.0299 | 0.104 | 3.2 | 4.08 | 2.92 | 2.8 | 2.94 | 3.43 | 2.95 | 2.63 | 7590 nM | 1720 nM | 1790 nM | 3760 nM | 2140 nM | > 10000 nM | 2920 nM | 1250 nM |
| CN1CCN(c2ccc3nc(-c4c(N)c5c(F)cccc5[nH]c4=O)[nH]c3c2)CC1 [Dovitinib (TKI-258)] | 0.351 | 0.207 | 0.116 | 0.395 | 0.252 | 0.0627 | 0.079 | 0.13 | 3.15 | 3.69 | 2.18 | 3.27 | 2.5 | 2.64 | 2.36 | 2.18 | 6940 nM | 3540 nM | 510 nM | 6950 nM | 2260 nM | 2560 nM | 956 nM | 451 nM |
| CC(O)C(=O)O.CC(O)C(=O)O.CN1CCN(c2ccc3nc(-c4c(N)c5c(F)cccc5[nH]c4=O)[nH]c3c2)CC1 [Dovitinib Dilactic acid (TKI258 Dilactic acid)] | 0.494 | 0.342 | 0.107 | 0.191 | 0.304 | 0.034 | 0.0691 | 0.0485 | 4.64 | 4.66 | 2 | 2.9 | 2.61 | 3.15 | 2.38 | 2.21 | > 10000 nM | 6520 nM | 303 nM | 2900 nM | 3160 nM | 3050 nM | 1160 nM | 430 nM |
| COc1cc2nccc(Oc3ccc(NC(=O)NC4CC4)c(Cl)c3)c2cc1C(N)=O [E7080 (Lenvatinib)] | 0.941 | 1.18 | 0.532 | 0.786 | 0.806 | 0.907 | 0.734 | 0.267 | 3.79 | 2.25 | 3.06 | 3.13 | 3.24 | 3.46 | 3.21 | 2.71 | > 10000 nM | > 10000 nM | > 10000 nM | > 10000 nM | > 10000 nM | > 10000 nM | > 10000 nM | 2270 nM |
| Cc1cc(Nc2cc(N3CCN(C)CC3)nc(/C=C/c3ccccc3)n2)n[nH]1.O=C(O)[C@H](O)[C@@H](O)C(=O)O [ENMD-2076] | 0.427 | 0.0165 | 0.109 | 0.0558 | 0.146 | 0.227 | 0.162 | 0.038 | 3.06 | 3.01 | 2.1 | 1.82 | 2.31 | 2.64 | 2.46 | 2.02 | 4110 nM | 1560 nM | 344 nM | 518 nM | 1150 nM | 2000 nM | 1090 nM | 456 nM |
| C#Cc1cccc(Nc2ncnc3cc(OCCOC)c(OCCOC)cc23)c1.Cl [Erlotinib HCl] | 0.915 | 0.961 | 0.137 | 0.549 | 0.471 | 0.39 | 0.731 | 0.183 | 3.55 | 3.8 | 2.43 | 3.37 | 2.59 | 2.66 | 3.46 | 2.99 | > 10000 nM | > 10000 nM | 1040 nM | > 10000 nM | 5250 nM | 3680 nM | > 10000 nM | 3610 nM |
| CO[C@H]1C[C@@H]2CC[C@@H](C)[C@@](O)(O2)C(=O)C(=O)N2CCCC[C@H]2C(=O)O[C@H]([C@H](C)C[C@@H]2CC[C@@H](OCCO)[C@H](OC)C2)CC(=O)[C@H](C)/C=C(\C)[C@@H](O)[C@@H](OC)C(=O)[C@H](C)C[C@H](C)/C=C/C=C/C=C/1C [Everolimus (RAD001)] | 0.851 | 0.314 | 0.39 | 0.293 | 0.538 | 0.56 | 0.631 | 0.406 | 3.45 | 1.96 | 1.85 | 1.21 | 2.3 | 2.37 | 2.56 | 2.14 | > 10000 nM | 99.2 nM | 278 nM | 3.85 nM | > 10000 nM | > 10000 nM | > 10000 nM | 1180 nM |
| CN1CC[C@H](c2c(O)cc(O)c3c(=O)cc(-c4ccccc4Cl)oc23)[C@H](O)C1.Cl [Flavopiridol hydrochloride] | 0.0135 | 0.0096 | 0.00461 | 0.00454 | 0.14 | 0.0149 | 0.0105 | 0.0716 | 1.92 | 1.74 | 1.27 | 0.837 | 1.57 | 1.84 | 1.63 | 1.85 | 262 nM | 125 nM | 70.7 nM | 36.9 nM | 140 nM | 225 nM | 174 nM | 170 nM |
| CC(C)NC[C@@H](C(=O)N1CCN(c2ncnc3c2[C@H](C)C[C@H]3O)CC1)c1ccc(Cl)cc1 [GDC-0068] | 0.82 | 0.0182 | 0.529 | 0.252 | 0.375 | 0.81 | 0.758 | 0.52 | 4.05 | 3.66 | 2.85 | 1.88 | 2.3 | 3.51 | 2.98 | 3.21 | > 10000 nM | 3090 nM | 9240 nM | 251 nM | 2260 nM | > 10000 nM | > 10000 nM | 8110 nM |
| OCCn1cc(-c2ccc3c(c2)CC/C3=N\O)c(-c2ccncc2)n1 [GDC-0879] | 1.05 | 1.18 | 0.745 | 0.716 | 0.937 | 0.92 | 0.999 | 0.98 | 4.12 | 5.03 | 3.54 | 2.97 | 3.5 | 3.52 | 3.81 | 4.13 | > 10000 nM | > 10000 nM | > 10000 nM | > 10000 nM | > 10000 nM | > 10000 nM | > 10000 nM | > 10000 nM |
